Assay results as given in patent US11667651B2, “Aminopyridine derivatives as phosphatidylinositol phosphate kinase inhibitors” (HiberCell, Inc., priority 2017, dated 2023).

Columns and labels:
Format in all cases: biochemical
[1] = target: T1, PIP4K2B (Homo sapiens, UniProt P78356); assay: Trans-FI P kinase assay PIP4K2B (Table 4); conditions: compounds listed under IC50 bins; read-out: Trans-FI P kinase assays: PIP4K2B IC50
T1 construct: made in house; host or cells: E. coli
T1 sequence (P78356 1-416): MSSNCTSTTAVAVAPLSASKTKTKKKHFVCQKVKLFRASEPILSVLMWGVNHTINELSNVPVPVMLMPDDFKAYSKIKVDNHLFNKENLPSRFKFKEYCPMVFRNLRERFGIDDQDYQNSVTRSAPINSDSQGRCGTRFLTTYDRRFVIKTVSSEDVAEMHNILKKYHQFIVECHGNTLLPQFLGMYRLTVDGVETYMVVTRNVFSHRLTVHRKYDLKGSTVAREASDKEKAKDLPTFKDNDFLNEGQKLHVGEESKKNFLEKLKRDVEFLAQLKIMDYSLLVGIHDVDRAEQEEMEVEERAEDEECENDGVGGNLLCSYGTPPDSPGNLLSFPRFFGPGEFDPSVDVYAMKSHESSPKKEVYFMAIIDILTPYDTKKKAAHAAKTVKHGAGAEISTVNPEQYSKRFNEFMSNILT
Procedure, shortened: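 Transcreener FI detection (Ex 584/Em 623) of GDP, converted via calibration curve, gives IC50 from residual activity versus log concentration (highest 4.8 μM). Reaction: 80 μM PI5P plus DOPE carrier, 100 μM GTP, 5 nM GST-tagged enzyme, pH 7.3 HEPES with MgCl2 and 5% DMSO, 2 h after 1 h enzyme-compound preincubation at 27° C.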

[2] = target: T2, PIP4K2A (Homo sapiens, UniProt P48426); assay: ADP-glo kinase assay PIP4K 2A (Table 3); design: made in house; host or cells: E. coli; conditions: compounds listed under IC50 bins
T2 sequence (P48426 1-406): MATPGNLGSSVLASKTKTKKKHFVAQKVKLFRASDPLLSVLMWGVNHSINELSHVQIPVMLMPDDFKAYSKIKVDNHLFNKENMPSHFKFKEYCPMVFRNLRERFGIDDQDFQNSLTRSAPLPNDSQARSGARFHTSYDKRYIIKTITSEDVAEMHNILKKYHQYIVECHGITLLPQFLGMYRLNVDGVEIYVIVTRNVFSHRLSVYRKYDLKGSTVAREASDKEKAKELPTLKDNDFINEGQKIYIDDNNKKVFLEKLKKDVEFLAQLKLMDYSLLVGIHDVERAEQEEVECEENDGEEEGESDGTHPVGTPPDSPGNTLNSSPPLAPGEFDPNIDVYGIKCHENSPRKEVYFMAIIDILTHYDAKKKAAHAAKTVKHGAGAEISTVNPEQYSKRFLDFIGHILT
Procedure, shortened: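 Full-length PIP4K2A (4 nM in the mix) with 100 μM PI(5)P diC8 pre-incubated 15 min with compound in MOPS pH 7.2, 25 mM MgCl2; ATP added (60 μM solution), 1 h at RT. ADP formed read by ADP-Glo luminescence; 10-point curves versus DMSO controls fitted to IC50.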

[3] = target: T2, PIP4K2A; assay: Kinase Assay PIP4K2 A (Table 2); design: 4 nM PIP4K2A (full length protein, SignalChem); purchased SignalChem; conditions: compounds listed under IC50 bins
Procedure, shortened: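 Full-length PIP4K2A (4 nM in the added mix, with 100 μM PI(5)P diC8) pre-incubated 15 min at RT with compounds (10-point, 3-fold series) in 20 mM MOPS pH 7.2, 25 mM MgCl2, 0.005% Tween 20. ATP added from a 60 μM solution, 1 h at RT; ADP-Glo luminescence, IC50 fitted from % inhibition versus DMSO.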

Compound	IC50 [1] [µM]	IC50 [2] [µM]	IC50 [3] [µM]
CN(C)C(=O)c1cnc(-c2ccc(Nc3cccnc3)nc2)nc1 [Example 29, N,N-dimethyl-2-(6-(pyridin-3-ylamino)pyridin-3-yl)pyrimidine-5-carboxamide]	> 1	> 1	> 1
O=C(c1cccc2ncc(Nc3ccc(-c4ccc(N5CCCC5=O)cc4)cn3)cc12)N1CCC(O)C1 (centres unmarked) [Example 149, 1-(4-(6-((5-(3-hydroxypyrrolidine-1-carbonyl)quinolin-3-yl)amino)pyridin-3-yl)phenyl)pyrrolidin-2-one]	> 1	> 1	0.1 to 1
CN(C)C/C=C/C(=O)NCCOCCOCCC(=O)Nc1cccc(C(=O)Nc2cncc(Nc3ccc(-c4ccc(C(=O)N(C)C)cc4)cn3)c2)c1 [Example 114, (E)-N,N-dimethyl-4-(6-((5-(3-(2-methyl-6-oxo-10,13-dioxa-2,7-diazahexadec-4-en-16-amido)benzamido)pyridin-3-yl)amino)pyridin-3-yl)benzamide]	0.01 to 0.1	0.1 to 1	0.01 to 0.1
CN(C)C(=O)c1ccc(-c2ccc(Nc3cnc4c(c3)N(C(=O)OC(C)(C)C)CCO4)nc2)cc1 [Example 45, tert-butyl 7-((5-(4-(dimethylcarbamoyl)phenyl)pyridin-2-yl)amino)-2,3-dihydro-1H-pyrido[2,3-b][1,4]oxazine-1-carboxylate]	0.01 to 0.1	0.1 to 1	0.01 to 0.1
CC(=O)N1CCOc2ncc(Nc3ccc(-c4ccc(N5CCCC5=O)cc4)cn3)cc21 [Example 86, 1-(4-(6-((1-acetyl-2,3-dihydro-1H-pyrido[2,3-b][1,4]oxazin-7-yl)amino)pyridin-3-yl)phenyl)pyrrolidin-2-one]	0.01 to 0.1	0.01 to 0.1	0.001 to 0.01
CN(C)C(=O)c1ccc(-c2ccc(Nc3cnc4c(c3)OCCO4)nc2)cc1 [Example 50, 4-(6-((2,3-dihydro-[1,4]dioxino[2,3-b]pyridin-7-yl)amino)pyridin-3-yl)-N,N-dimethylbenzamide]	0.01 to 0.1	0.1 to 1	0.01 to 0.1
COc1ncc(Nc2ccc(-c3ccc(N4CCCC4=O)cc3)cn2)cc1N(C)S(C)(=O)=O [Example 161, N-(2-methoxy-5-((5-(4-(2-oxopyrrolidin-1-yl)phenyl)pyridin-2-yl)amino)pyridin-3-yl)-N-methylmethanesulfonamide]	0.01 to 0.1	0.1 to 1	0.1 to 1
CN(C)C(=O)c1ccc(-c2ccc(Nc3cnc4c(c3)N(C(=O)C(C)(C)CO)CCO4)nc2)cc1 [Example 96, 4-(6-((1-(3-hydroxy-2,2-dimethylpropanoyl)-2,3-dihydro-1H-pyrido[2,3-b][1,4]oxazin-7-yl)amino)pyridin-3-yl)-N,N-dimethylbenzamide]	0.01 to 0.1	0.01 to 0.1	0.001 to 0.01
CN(C)C(=O)c1ccc(-c2ccc(Nc3cncc(NC(=O)c4ccc(N)cc4)c3)nc2)cc1 [Example 116, 4-(6-((5-(4-aminobenzamido)pyridin-3-yl)amino)pyridin-3-yl)-N,N-dimethylbenzamide]	0.01 to 0.1	0.01 to 0.1	0.01 to 0.1
CC(=O)N1CCN(C)c2ncc(Nc3ccc(-c4ccc(C(=O)N(C)C)cc4)cn3)cc21 [Example 59, 4-(6-((1-acetyl-4-methyl-1,2,3,4-tetrahydropyrido[2,3-b]pyrazin-7-yl)amino)pyridin-3-yl)-N,N-dimethylbenzamide]	0.01 to 0.1	0.1 to 1	0.01 to 0.1
CN(C)C/C=C/C(=O)Nc1ccc(C(=O)Nc2cncc(Nc3ccc(-c4ccc(N5CCCC5=O)cc4)cn3)c2)cc1 [Example 167, (E)-4-(4-(dimethylamino)but-2-enamido)-N-(5-((5-(4-(2-oxopyrrolidin-1-yl)phenyl)pyridin-2-yl)amino)pyridin-3-yl)benzamide]	0.01 to 0.1	0.01 to 0.1	–

Further lines, results first:

IC50 [1] [µM]	IC50 [2] [µM]	IC50 [3] [µM]	Compound
0.01 to 0.1	0.01 to 0.1	0.001 to 0.01	CCO[C@H]1C[C@@H]1C(=O)Nc1cncc(Nc2ccc(-c3ccc(N4CCCC4=O)cc3)cn2)c1 [Example 252, (1S,2S)-2-ethoxy-N-(5-((5-(4-(2-oxopyrrolidin-1-yl)phenyl)pyridin-2-yl)amino)pyridin-3-yl)cyclopropane-1-carboxamide]
0.01 to 0.1	0.001 to 0.01	–	CC1C[C@H]2COc3ncc(Nc4ccc(-c5ccc(N6CCCC6=O)c(F)c5)cn4)cc3N2C1=O (stereo partly drawn) [Example 261, (6aS)-2-((5-(3-fluoro-4-(2-oxopyrrolidin-1-yl)phenyl)pyridin-2-yl)amino)-8-methyl-6,6a,7,8-tetrahydro-9H-pyrido[2,3-b]pyrrolo[1,2-d][1,4]oxazin-9-one]
0.01 to 0.1	0.001 to 0.01	–	Cc1cc(Nc2cnc3c(c2)N2C(=O)C4(CC4)C[C@H]2CO3)ncc1-c1ccc(N2CCCC2=O)cc1 [Example 206, (S)-2′-((4-methyl-5-(4-(2-oxopyrrolidin-1-yl)phenyl)pyridin-2-yl)amino)-6a′,7′-dihydro-6′H,9′H-spiro[cyclopropane-1,8′-pyrido[2,3-b]pyrrolo[1,2-d][1,4]oxazin]-9′-one]
0.001 to 0.01	0.001 to 0.01	–	Nc1nc(Nc2cnc3c(c2)N2C(=O)C4(CC4)C[C@H]2CO3)ncc1-c1ccc(N2CCCC2=O)cc1 [Example 204, (S)-2′-((4-amino-5-(4-(2-oxopyrrolidin-1-yl)phenyl)pyrimidin-2-yl)amino)-6a′,7′-dihydro-6′H,9′H-spiro[cyclopropane-1,8′-pyrido[2,3-b]pyrrolo[1,2-d][1,4]oxazin]-9′-one]
0.01 to 0.1	0.001 to 0.01	–	CN(C)C/C=C/C(=O)NCC(=O)Nc1ccc(CN2CCN(c3cncc(Nc4ccc(-c5ccc(N6CCCC6=O)cc5)cn4)c3)C2=O)cc1 [Example 172, (E)-4-(dimethylamino)-N-(2-oxo-2-((4-((2-oxo-3-(5-((5-(4-(2-oxopyrrolidin-1-yl)phenyl)pyridin-2-yl)amino)pyridin-3-yl)imidazolidin-1-yl)methyl)phenyl)amino)ethyl)but-2-enamide]
0.01 to 0.1	0.001 to 0.01	–	O=C1CCCN1c1ccc(-c2ccc(Nc3cnc4c(c3)N3C(=O)OC[C@H]3CO4)nc2)cc1 [Example 265, (R)-8-((5-(4-(2-oxopyrrolidin-1-yl)phenyl)pyridin-2-yl)amino)-3a,4-dihydro-1H,3H-oxazolo[3,4-d]pyrido[2,3-b][1,4]oxazin-1-one]
0.001 to 0.01	0.001 to 0.01	–	Cc1cc(N2CCCC2=O)ccc1-c1cnc(Nc2cnc3c(c2)N2C(=O)CC[C@H]2CO3)nc1 [Example 198, (S)-2-((5-(2-methyl-4-(2-oxopyrrolidin-1-yl)phenyl)pyrimidin-2-yl)amino)-6,6a,7,8-tetrahydro-9H-pyrido[2,3-b]pyrrolo[1,2-d][1,4]oxazin-9-one]
0.001 to 0.01	0.001 to 0.01	–	Nc1nc(Nc2cnc3c(c2)N2C(=O)CC[C@H]2CO3)ncc1-c1ccc(N2CCCC2=O)cc1 [Example 199, (S)-2-((4-amino-5-(4-(2-oxopyrrolidin-1-yl)phenyl)pyrimidin-2-yl)amino)-6,6a,7,8-tetrahydro-9H-pyrido[2,3-b]pyrrolo[1,2-d][1,4]oxazin-9-one]
0.001 to 0.01	0.001 to 0.01	–	O=C1CCCN1c1ccc(-c2cnc(Nc3cnc4c(c3)N3C(=O)C5(CC5)C[C@H]3CO4)nc2)cc1 [Example 205, (S)-2′-((5-(4-(2-oxopyrrolidin-1-yl)phenyl)pyrimidin-2-yl)amino)-6a′,7′-dihydro-6′H,9′H-spiro[cyclopropane-1,8′-pyrido[2,3-b]pyrrolo[1,2-d][1,4]oxazin]-9′-one]
0.01 to 0.1	0.01 to 0.1	–	O=C1CCCN1c1ccc(-c2cnc(Nc3cnc4c(c3)N3C(=O)CC[C@H]3CO4)nc2)cc1F [Example 187, (S)-2-((5-(3-fluoro-4-(2-oxopyrrolidin-1-yl)phenyl)pyrimidin-2-yl)amino)-6,6a,7,8-tetrahydro-9H-pyrido[2,3-b]pyrrolo[1,2-d][1,4]oxazin-9-one]
